Source: patent US11045482B2, “Use of glucocorticoid receptor modulators in the treatment of catecholamine-secreting tumors” (Corcept Therapeutics, Inc., priority 2017, dated 2021)

How the values were obtained:
PNMT mRNA = conditions: intact rats; cited from earlier work
[1] = system: metastatic pheochromocytoma associated with ectopic ACTH secretion; experiment: Case of a person with metastatic pheochromocytoma and Cushing syndrome given mifepristone (Example 1); type: in vivo, human; conditions: for catecholamine excess symptoms (palpitations, tremors and panic attacks): despite high dose of atenolol and phenoxybenzamine, before mifepristone
Method: A person with metastatic pheochromocytoma associated with ectopic ACTH secretion unresponsive to conventional chemotherapy with CVD (cyclophosphamide, vincristine and dacarbazine) and Sunitinib (tyrosine kinase inhibitors) was enrolled in a phase 2 study with a somatostatin analog. […] At the same time the diagnosis of Cushing syndrome was made and 300 mg of Mifepristone was added to their regimen and the dose was further increased to 600 mg daily two weeks later. […] The plasma epinephrine level after 2 weeks of therapy with mifepristone was decreased by 50%, and the plasma metanephrine level was decreased by 25% after 9 weeks of therapy.

[2] = system: pheochromocytoma crisis (PC); conditions: cited from earlier work
[3] = system: metastatic or unresectable catecholamine-secreting tumor; experiment: Patient with metastatic or unresectable catecholamine-secreting tumor: blood catecholamine level after five weeks of treatment (Examples 2-77); type: in vivo, human
Method: (§1) A patient having a metastatic or unresectable catecholamine-secreting tumor, who is not in need of treatment with a glucocorticoid receptor antagonist, and is not receiving exogenous glucocorticoid receptor agonist treatment, is administered an effective amount of mifepristone at a daily dose of 50 mg/kg/day.
as §1, with “20” for “50”
as §1, with “15” for “50”
as §1, with “10” for “50”
as §1, with “5” for “50”
as §1, with “mg/kg/day, and is also administered chemotherapy.” for “mg/kg/day.”
as §1, with “20 mg/kg/day, and is also administered chemotherapy.” for “50 mg/kg/day.”
as §1, with “15 mg/kg/day, and is also administered chemotherapy.” for “50 mg/kg/day.”
as §1, with “10 mg/kg/day, and is also administered chemotherapy.” for “50 mg/kg/day.”
as §1, with “5 mg/kg/day, and is also administered chemotherapy.” for “50 mg/kg/day.”
as §1, with “mg/kg/day, and is also administered an adrenergic antagonist. […]” for “mg/kg/day.”

[4] = system: rat phenylethanolamine N-methyltransferase (PNMT) gene promoter; conditions: RU486 10 μM; cited from earlier work
[5] = system: PNMT mRNA and enzyme expression; conditions: rats, depletion of corticosteroids by hypophysectomy; cited from earlier work
[6] = after 3 months of therapy with mifepristone
[7] = one week after the discontinuation of mifepristone

CC#CC1(O)CC[C@H]2[C@@H]3C=C(C)C4=CC(=O)C=C[C@]4(C)[C@H]3C(O)C[C@@]21C (some centres unmarked) [RU28362, 11,17-dihydroxy-6-methyl-17-(1-propynyl)androsta-1,4,6-triene-3-one]
PNMT mRNA levels (PNMT mRNA): rise markedly

CC(C)NCC(O)COc1ccc(CC(N)=O)cc1 (centres unmarked) [atenolol]
catecholamine excess symptoms (palpitations, tremors and panic attacks) [1]: continued to experience significant catecholamine excess symptoms

C[C@@H]1C[C@H]2[C@@H]3CCC4=CC(=O)C=C[C@]4(C)[C@@]3(F)[C@@H](O)C[C@]2(C)[C@@]1(O)C(=O)CO [dexamethasone]
pheochromocytoma crisis cases ([2]; 1 mg given as a DST in patients with pheochromocytoma): no cases have been reported | pheochromocytoma crisis ([2]; larger doses, as low as 2 mg): may trigger a PC

CC#C[C@]1(O)CC[C@H]2[C@@H]3CCC4=CC(=O)CCC4=C3[C@@H](c3ccc(N(C)C)cc3)C[C@@]21C [mifepristone, 11β-(4-dimethylaminophenyl)-17β-hydroxy-17α-(1-propynyl)-estra-4,9-dien-3-one]
plasma epinephrine level decreased by ([1]; after 2 weeks of therapy with mifepristone (300 mg)): 50% | metanephrine level [1, 6]: slightly elevated | symptoms of catecholamine excess [1, 6]: controlled | adverse event ([1]; after 3 months of therapy, mifepristone temporarily withheld): vaginal bleeding | plasma metanephrine level decreased by ([1]; after 9 weeks of therapy (300 mg, increased to 600 mg daily two weeks later)): 25% | metanephrine measurement after discontinuation compared to the level during mifepristone dosing [1, 7]: fourfold increase | symptoms of catecholamine excess after discontinuation [1, 7]: worse symptoms of catecholamine excess | symptoms related to cortisol excess as well as to catecholamine excess ([1]; one week after the institution of mifepristone (300 mg), added to somatostatin analog, atenolol, phenoxybenzamine): dramatic improvement | blood level of a catecholamine after five weeks of treatment as compared to the initial level ([3]; daily dose of 1 mg/kg/day, also administered somatostatin): lower | blood level of a catecholamine after five weeks of treatment as compared to the initial level ([3]; daily dose of 5 mg/kg/day): lower | blood level of a catecholamine after five weeks of treatment as compared to the initial level ([3]; daily dose of 5 mg/kg/day, also administered a somatostatin analog): lower | blood level of a catecholamine after five weeks of treatment as compared to the initial level ([3]; daily dose of 5 mg/kg/day, also administered an adrenergic antagonist): lower | blood level of a catecholamine after five weeks of treatment as compared to the initial level ([3]; daily dose of 5 mg/kg/day, also administered chemotherapy): lower | blood level of a catecholamine after five weeks of treatment as compared to the initial level ([3]; daily dose of 5 mg/kg/day, also administered somatostatin): lower | blood level of a catecholamine after five weeks of treatment as compared to the initial level ([3]; daily dose of 5 mg/kg/day, also receives Peptide Receptor Radionuclide Therapy): lower | blood level of a catecholamine after five weeks of treatment as compared to the initial level ([3]; daily dose of 10 mg/kg/day): lower | blood level of a catecholamine after five weeks of treatment as compared to the initial level ([3]; daily dose of 10 mg/kg/day, also administered a somatostatin analog): lower | blood level of a catecholamine after five weeks of treatment as compared to the initial level ([3]; daily dose of 10 mg/kg/day, also administered an adrenergic antagonist): lower | blood level of a catecholamine after five weeks of treatment as compared to the initial level ([3]; daily dose of 10 mg/kg/day, also administered chemotherapy): lower | blood level of a catecholamine after five weeks of treatment as compared to the initial level ([3]; daily dose of 10 mg/kg/day, also administered somatostatin): lower | blood level of a catecholamine after five weeks of treatment as compared to the initial level ([3]; daily dose of 10 mg/kg/day, also receives Peptide Receptor Radionuclide Therapy): lower | blood level of a catecholamine after five weeks of treatment as compared to the initial level ([3]; daily dose of 15 mg/kg/day): lower | blood level of a catecholamine after five weeks of treatment as compared to the initial level ([3]; daily dose of 15 mg/kg/day, also administered a somatostatin analog): lower | blood level of a catecholamine after five weeks of treatment as compared to the initial level ([3]; daily dose of 15 mg/kg/day, also administered chemotherapy): lower | blood level of a catecholamine after five weeks of treatment as compared to the initial level ([3]; daily dose of 15 mg/kg/day, also receives Peptide Receptor Radionuclide Therapy): lower | blood level of a catecholamine after five weeks of treatment as compared to the initial level ([3]; daily dose of 20 mg/kg/day): lower | blood level of a catecholamine after five weeks of treatment as compared to the initial level ([3]; daily dose of 20 mg/kg/day, also administered a somatostatin analog): lower | blood level of a catecholamine after five weeks of treatment as compared to the initial level ([3]; daily dose of 20 mg/kg/day, also administered an adrenergic antagonist): lower | blood level of a catecholamine after five weeks of treatment as compared to the initial level ([3]; daily dose of 20 mg/kg/day, also administered an adrenergic antagonist and Peptide Receptor Radionuclide Therapy): lower | blood level of a catecholamine after five weeks of treatment as compared to the initial level ([3]; daily dose of 20 mg/kg/day, also administered chemotherapy): lower | blood level of a catecholamine after five weeks of treatment as compared to the initial level ([3]; daily dose of 20 mg/kg/day, also administered chemotherapy and a somatostatin analog): lower | blood level of a catecholamine after five weeks of treatment as compared to the initial level ([3]; daily dose of 20 mg/kg/day, also administered chemotherapy and an adrenergic antagonist): lower | blood level of a catecholamine after five weeks of treatment as compared to the initial level ([3]; daily dose of 20 mg/kg/day, also administered chemotherapy and somatostatin): lower | blood level of a catecholamine after five weeks of treatment as compared to the initial level ([3]; daily dose of 20 mg/kg/day, also administered somatostatin): lower | blood level of a catecholamine after five weeks of treatment as compared to the initial level ([3]; daily dose of 20 mg/kg/day, also receives Peptide Receptor Radionuclide Therapy): lower | blood level of a catecholamine after five weeks of treatment as compared to the initial level ([3]; daily dose of 50 mg/kg/day): lower | blood level of a catecholamine after five weeks of treatment as compared to the initial level ([3]; daily dose of 50 mg/kg/day, also administered an adrenergic antagonist): lower | blood level of a catecholamine after five weeks of treatment as compared to the initial level ([3]; daily dose of 50 mg/kg/day, also administered chemotherapy): lower | blood level of a catecholamine after five weeks of treatment as compared to the initial level ([3]; single pharmaceutical composition comprising 50 mg mifepristone and a somatostatin analog, daily for five weeks): lower | blood level of a catecholamine after five weeks of treatment as compared to the initial level ([3]; single pharmaceutical composition comprising 50 mg mifepristone and an adrenergic antagonist, daily for five weeks, also chemotherapy): lower | blood level of a catecholamine after five weeks of treatment as compared to the initial level ([3]; single pharmaceutical composition comprising 50 mg mifepristone and somatostatin, daily for five weeks): lower | blood level of a catecholamine after five weeks of treatment as compared to the initial level ([3]; single pharmaceutical composition comprising 100 mg mifepristone and a somatostatin analog, daily for five weeks): lower | blood level of a catecholamine after five weeks of treatment as compared to the initial level ([3]; single pharmaceutical composition comprising 100 mg mifepristone and an adrenergic antagonist, daily for five weeks): lower | blood level of a catecholamine after five weeks of treatment as compared to the initial level ([3]; single pharmaceutical composition comprising 100 mg mifepristone and an adrenergic antagonist, daily for five weeks, also chemotherapy): lower | blood level of a catecholamine after five weeks of treatment as compared to the initial level ([3]; single pharmaceutical composition comprising 100 mg mifepristone and somatostatin, daily for five weeks): lower | blood level of a catecholamine after five weeks of treatment as compared to the initial level ([3]; single pharmaceutical composition comprising 300 mg mifepristone and a somatostatin analog, daily for five weeks): lower | blood level of a catecholamine after five weeks of treatment as compared to the initial level ([3]; single pharmaceutical composition comprising 300 mg mifepristone and an adrenergic antagonist, daily for five weeks): lower | blood level of a catecholamine after five weeks of treatment as compared to the initial level ([3]; single pharmaceutical composition comprising 300 mg mifepristone and an adrenergic antagonist, daily for five weeks, also chemotherapy): lower | blood level of a catecholamine after five weeks of treatment as compared to the initial level ([3]; single pharmaceutical composition comprising 300 mg mifepristone and somatostatin, daily for five weeks): lower | inhibition of dexamethasone (1 μM) activation of the PNMT promoter [4]: fully inhibited

CC(COc1ccccc1)N(CCCl)Cc1ccccc1 (centres unmarked) [phenoxybenzamine]
catecholamine excess symptoms (palpitations, tremors and panic attacks) [1]: continued to experience significant catecholamine excess symptoms

adrenocorticotropin: stimulates endogenous glucocorticoid production (SYSMEHFRWGKPVGKKRRPVKVYPNGAEDESAEAFPLEF; Corticotropin; UniProt P01189 138-176, looked up)
decrease of PNMT mRNA and enzyme expression after hypophysectomy [5]: reversed
